What was measured:
LNCaP-AR cells [1] = assay: in vitro growth in low androgen concentrations, AR-overexpressing cells; format: cell-based, human; details: compared with 100 pM needed by vector cells
From the text: (§1) To determine if increased AR protein concentration plays a causal role in the HS-to-HR transition, we introduced an epitope-tagged wildtype AR cDNA by retrovirus infection into HS LNCaP human prostate cancer cells. A three-fold increase in AR levels in LNCaP-AR cells mimics the expression difference observed in the LNCaP HS/HR pair studied in the microarray experiment. To test whether increased AR expression causes the HS-to-HR transition, we designed two in vitro assays to mimic the clinical circumstances of HR disease. […] In contrast, LNCaP-AR cells grew in at least 80% lower concentrations of R1881.
(§2) Details of typical in vitro and in vivo growth experiments are as follows: LNCaP (ATCC) and LAPC4 cells were maintained in Iscove's medium supplemented with 10% fetal bovine serum. […] In vivo tumorigenicity was measured by injection of 5×10^5 LAPC4 or 1×10^6 LNCaP cells in 100 μl of Matrigel (Collaborative Biomedical) subcutaneously into the flanks of intact or castrated male SCID mice. Tumor size was measured weekly in three dimensions using caliber as described.^26 AR knockdown was performed by infection of HR LAPC4 with shRNA AR lentivirus. Tumors which grew in castrated mice were explanted, and analyzed by flow cytometry for the percentage of GFP-positive cells. […]

LNCaP-AR cells [2] = assay: Affymetrix U133A microarray of induced genes, AR-overexpressing cells; format: cell-based, human
[3] = biological target: AR transcription complex on the promoters of PSA and KLK2 (Homo sapiens, UniProt P10275, T878A)
AR transcription complex on the promoters of PSA and KLK2, sequence (P10275 whole entry T878A, the tested form may be a part, one chain of several): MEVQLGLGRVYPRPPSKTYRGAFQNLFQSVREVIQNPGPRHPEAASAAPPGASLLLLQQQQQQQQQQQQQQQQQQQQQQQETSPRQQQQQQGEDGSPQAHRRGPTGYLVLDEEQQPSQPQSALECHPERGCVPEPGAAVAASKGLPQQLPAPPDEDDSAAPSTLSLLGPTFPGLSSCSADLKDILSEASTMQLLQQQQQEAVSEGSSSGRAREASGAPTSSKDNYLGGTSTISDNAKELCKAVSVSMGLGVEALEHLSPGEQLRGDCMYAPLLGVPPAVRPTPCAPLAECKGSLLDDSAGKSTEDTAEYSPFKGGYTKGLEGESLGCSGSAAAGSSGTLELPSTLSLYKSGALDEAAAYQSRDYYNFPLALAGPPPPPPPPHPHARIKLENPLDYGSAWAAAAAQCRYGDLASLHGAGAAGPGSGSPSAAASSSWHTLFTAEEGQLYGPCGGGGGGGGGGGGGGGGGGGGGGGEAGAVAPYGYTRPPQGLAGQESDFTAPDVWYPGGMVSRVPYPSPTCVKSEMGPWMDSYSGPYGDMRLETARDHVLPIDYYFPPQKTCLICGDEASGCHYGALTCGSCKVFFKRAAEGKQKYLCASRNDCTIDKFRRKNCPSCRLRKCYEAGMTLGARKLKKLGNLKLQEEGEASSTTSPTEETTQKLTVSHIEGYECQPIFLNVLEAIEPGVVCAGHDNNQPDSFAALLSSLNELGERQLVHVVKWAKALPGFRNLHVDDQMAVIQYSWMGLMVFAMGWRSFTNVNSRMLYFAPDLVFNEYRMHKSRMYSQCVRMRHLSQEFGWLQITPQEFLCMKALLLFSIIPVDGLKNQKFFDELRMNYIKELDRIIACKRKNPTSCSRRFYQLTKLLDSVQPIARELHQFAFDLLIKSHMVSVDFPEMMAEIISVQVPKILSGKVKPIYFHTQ
Description: Soluble chromatin was prepared after formaldehyde crosslinking and sonication. Specific IgGs against AR, N—CoR, PolII, Ac—H3/4, SRC1, TIF2, AIB1, and PCAF were used to immunoprecipitate protein-bound DNA fragments.

[4] = test system: LNCaP cells infected with the empty vector; assay: in vitro growth in low androgen concentrations, vector control cells; format: cell-based, human; details: failed to grow unless supplemented
From the text: as §1, §2

Row | Structure (SMILES) | lower concentration of R1881 in which cells grew (LNCaP-AR cells [1]) | total number of androgen-regulated genes (LNCaP-AR cells [2]; increasing doses of R1881) | recruitment of AR and polymerase II to PSA and KLK2 promoters [3] | R1881 supplement needed for growth in steroid-depleted, charcoal-stripped serum [4] | subset of the total number of androgen-regulated genes induced (LNCaP-AR cells [2]; LNCaP-AR, 10 μM bicalutamide)
1 | C[C@]1(O)CC[C@H]2[C@@H]3CCC4=CC(=O)CCC4=C3C=C[C@@]21C [R1881] | at least 80% | > 600 probe sets | AR and polymerase II were recruited to both promoters regardless of AR level | 100 pM | –
2 | CC(O)(CS(=O)(=O)c1ccc(F)cc1)C(=O)Nc1ccc(C#N)c(C(F)(F)F)c1 (centres unmarked) [bicalutamide] | – | – | – | – | < 10%

From US8034548B2, “Methods and materials for assessing prostate cancer therapies” (The Regents of the University of California, priority 2003, dated 2011)
